# From patent publication US20040214893A1, “Gabapentin compositions” (priority 2003, published 2004)
# Assay: pH of aqueous solution of the crystalline salt
# Format: physicochemical
# Settings: 14.00 mg crystalline salt in 140 microliters of water
# Experimental: Gabapentin (0.55857 g) and ethanedisulfonic acid (0.62940 g) were transferred into a 20 mL scintillation vial. Water (1.5 mL) was added and the mixture was heated to 85 deg. C. to dissolve all of the solids. The solution was filtered through a 0.2 micron filter into a new 20 mL scintillation vial. The vial was capped and placed in the refrigerator (2-4 deg. C.) for 2 hours. The resulting crystals were collected by vacuum filtration (345.83 mg) and analyzed by PXRD. Upon analysis, the crystals were determined to be gabapentin ethanedisulfonic acid salt. A small amount of the crystalline salt (14.00 mg) was weighted into a 3 mL vial and 140 microliters of water was added. The pH of the resulting solution was determined to be 1.2. […] The salt can be characterized by any one, any two, any three, any four, any five, or any six or more of the peaks in FIG. 13 including, but not limited to, 6.0, 11.51, 15.11, 16.17, 17.31, 17.85, 19.73, 20.19, 22.21, 24.63, 26.73, and 28.47 degrees 2-theta.
substance,measurement,value
gabapentin ethanedisulfonic acid salt,pH of the resulting solution,1.2
